In one experiment the target is T1, M4 muscarinic receptor (Homo sapiens, UniProt P08173).
T1 construct: expressed in transfected cells; host or cells: CHO (M4-CHO)
T1 sequence (P08173 1-479): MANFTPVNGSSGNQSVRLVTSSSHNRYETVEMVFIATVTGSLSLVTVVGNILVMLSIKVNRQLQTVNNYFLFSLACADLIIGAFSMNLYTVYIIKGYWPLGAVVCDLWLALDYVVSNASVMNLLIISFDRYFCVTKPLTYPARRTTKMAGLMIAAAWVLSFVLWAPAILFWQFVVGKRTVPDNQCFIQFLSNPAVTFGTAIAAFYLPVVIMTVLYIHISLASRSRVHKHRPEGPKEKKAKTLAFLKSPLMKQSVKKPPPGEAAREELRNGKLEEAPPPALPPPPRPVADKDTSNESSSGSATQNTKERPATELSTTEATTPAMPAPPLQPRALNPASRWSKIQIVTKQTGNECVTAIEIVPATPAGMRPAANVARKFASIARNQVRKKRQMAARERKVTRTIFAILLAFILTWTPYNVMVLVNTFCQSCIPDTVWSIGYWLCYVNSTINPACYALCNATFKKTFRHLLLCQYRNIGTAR
Briefly: Functional mobilization of intracellular calcium (FLIPR) in M4-CHO cells. It counts as cell-based. Conditions: M4 receptor, calcium mobilization; for Emax: read-out: M4 Efficacy. An outline of the steps: (§1)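 Measured via Fluo-3 fluorescence on a FLIPR, CHO cells with either muscarinic subtype received compound in 0.5% DMSO. Antagonism was assessed after 15 min pre-incubation followed by carbachol at each subtype's EC80; agonism from compound addition alone.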

The target in another experiment is T2, M1 muscarinic receptor (Homo sapiens, UniProt P11229).
T2 construct: expressed in transfected cells; host or cells: CHO (M1-CHO)
T2 sequence (P11229 1-460): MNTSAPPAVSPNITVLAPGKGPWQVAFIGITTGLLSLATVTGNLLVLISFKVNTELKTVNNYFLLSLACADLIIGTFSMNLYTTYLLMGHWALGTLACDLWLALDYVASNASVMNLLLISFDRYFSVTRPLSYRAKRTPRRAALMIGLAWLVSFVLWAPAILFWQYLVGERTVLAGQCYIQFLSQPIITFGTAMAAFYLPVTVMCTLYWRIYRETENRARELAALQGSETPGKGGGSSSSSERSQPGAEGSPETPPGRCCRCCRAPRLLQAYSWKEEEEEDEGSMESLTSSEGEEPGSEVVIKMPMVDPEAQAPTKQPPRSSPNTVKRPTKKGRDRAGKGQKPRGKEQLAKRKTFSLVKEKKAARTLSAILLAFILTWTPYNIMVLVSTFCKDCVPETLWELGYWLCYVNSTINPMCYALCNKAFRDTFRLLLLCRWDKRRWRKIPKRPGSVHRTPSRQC
The experiment can be described thus: Functional mobilization of intracellular calcium (FLIPR) in M1-CHO cells. It counts as cell-based. The settings on record: M1 receptor, calcium mobilization; for Emax: read-out: M1 Efficacy. The method in brief: as §1

Consider 23 molecules from US7786141B2 (Vertex Pharmaceuticals Incorporated, priority 2004, dated 2010).

A value given as a limit tells only on which side of the number the result lay.

For the molecule `COC(=O)N1CC2(CCN(C3CC4CCC(C3)N4C(=O)OC)CC2)c2cc(F)ccc21` (centres unmarked) [compound 235], on M4 muscarinic receptor, the “M4 Activity” value is recorded as “x (activity was measured to be greater than 1.0 μM)” and the Emax was 65 to 85%. Moreover, at M1 muscarinic receptor, the “M1 Activity” value is “xx (activity was measured to be between 0.1 μM and 1.0 μM)”; the Emax was in the range of 65 to 85%.
As to `CC(=O)N1CC2(CCN(C3CCC(C(F)(F)F)CC3)CC2)c2cc(F)ccc21` (centres unmarked) [compound 236], on M4 muscarinic receptor, the “M4 Activity” value is “xx (activity was measured to be between 0.1 μM and 1.0 μM)”; the Emax fell in the range of 65 to 85%. Moreover, on M1 muscarinic receptor, the “M1 Activity” value is “xxx (activity was measured to be less than 0.1 μM)” and the Emax is 65 to 85%.
Turning to `CCOC(=O)N1CCC(CN2CCC3(CC2)CN(C(C)=O)c2ccc(OC)cc23)CC1` [compound 237], at M4 muscarinic receptor, the “M4 Activity” value is “xx (activity was measured to be between 0.1 μM and 1.0 μM)”; the Emax is less than 65%. On M1 muscarinic receptor, the “M1 Activity” value was “xxx (activity was measured to be less than 0.1 μM)” and the Emax is less than 65%.
Take `O=C1CC2(CCN(C[C@@H]3C[C@H]4C=C[C@H]3C4)CC2)c2ccccc21` [compound 238]: at M4 muscarinic receptor, the “M4 Activity” value is given as “x (activity was measured to be greater than 1.0 μM)” and the Emax was less than 65%. Also, on M1 muscarinic receptor, the “M1 Activity” value was “x (activity was measured to be greater than 1.0 μM)” and the Emax is less than 65%.
For the molecule `CC(=O)N1CC2(CCN(C3CCC[C@@H](C)C3)CC2)c2cc(F)ccc21` (some centres unmarked) [compound 240], at M4 muscarinic receptor, the “M4 Activity” value is “x (activity was measured to be greater than 1.0 μM)” and the Emax is greater than 85%. Besides, at M1 muscarinic receptor, the “M1 Activity” value is “xx (activity was measured to be between 0.1 μM and 1.0 μM)”; the Emax is 65 to 85%.
As to `Cc1ccc2c(c1)C1(CCN(CC3CCC4CCC3C4)CC1)CN2` (centres unmarked) [compound 241], on M4 muscarinic receptor, the “M4 Activity” value is on record as “x (activity was measured to be greater than 1.0 μM)” and the Emax was greater than 85%. For the same molecule, at M1 muscarinic receptor, the “M1 Activity” value was “xx (activity was measured to be between 0.1 μM and 1.0 μM)”; the Emax is less than 65%.
`O=C1CC2(CCN(C3CCCCCC3)CC2)c2ccccc2N1` [compound 242]: on M4 muscarinic receptor, the “M4 Activity” value is “xx (activity was measured to be between 0.1 μM and 1.0 μM)”; the Emax was greater than 85%. Besides, at M1 muscarinic receptor, the “M1 Activity” value is “xxx (activity was measured to be less than 0.1 μM)” and the Emax lay within 65 to 85%.
`O=C(O[C@@H]1CCOC1)N1CC2(CCN(C3CC4CCC(C3)N4C(=O)O[C@@H]3CCOC3)CC2)c2cc(F)ccc21` (some centres unmarked) [compound 243]: at M4 muscarinic receptor, the “M4 Activity” value is on record as “x (activity was measured to be greater than 1.0 μM)”; the “M4 Efficacy” value was “xx (efficacy was calculated to be between 85% and 65%)”. In addition, on M1 muscarinic receptor, the “M1 Activity” value is reported as “xxx (activity was measured to be less than 0.1 μM)”; the “M1 Efficacy” value was “xx (efficacy was calculated to be between 85% and 65%)”.
For `c1ccc2c(c1)NCC21CCN(C2CCC3CCC2C3)CC1` (centres unmarked) [compound 244], at M4 muscarinic receptor, the “M4 Activity” value is recorded as “x (activity was measured to be greater than 1.0 μM)” and the Emax is 65 to 85%. At M1 muscarinic receptor, the “M1 Activity” value was “xx (activity was measured to be between 0.1 μM and 1.0 μM)”; the Emax lay within 65 to 85%.
With `CCOC(=O)N1CCC(N2CCC3(CC2)CN(C(C)=O)c2ccc(C4CC4)cc23)CC1` [compound 245], on M4 muscarinic receptor, the “M4 Activity” value is “xx (activity was measured to be between 0.1 μM and 1.0 μM)”; the Emax is greater than 85%. Further, at M1 muscarinic receptor, the “M1 Activity” value is “xx (activity was measured to be between 0.1 μM and 1.0 μM)”; the Emax is less than 65%.
For the molecule `CC(C)C(=O)N(C)[C@H]1CC2(CCN(C[C@H]3C[C@H]4CC[C@H]3C4)CC2)c2ccccc21` [compound 246], at M4 muscarinic receptor, the “M4 Activity” value was “xx (activity was measured to be between 0.1 μM and 1.0 μM)”; the Emax is greater than 85%. Besides, on M1 muscarinic receptor, the “M1 Activity” value is “xx (activity was measured to be between 0.1 μM and 1.0 μM)”; the Emax is less than 65%.
Consider `CC(C)(C)COC(=O)N1C2CCC1CC(N1CCC3(CC1)COc1ccc(F)cc13)C2` (centres unmarked) [compound 247], for which, at M4 muscarinic receptor, the “M4 Activity” value is “x (activity was measured to be greater than 1.0 μM)” and the Emax was greater than 85%. Also, on M1 muscarinic receptor, the “M1 Activity” value was “xx (activity was measured to be between 0.1 μM and 1.0 μM)”; the Emax was 65 to 85%.
Turning to `CC(=O)N1CC2(CCN(C3CCCCCCC3)CC2)c2cc(F)ccc21` [compound 248], on M4 muscarinic receptor, the “M4 Activity” value was “x (activity was measured to be greater than 1.0 μM)” and the Emax is less than 65%. At M1 muscarinic receptor, the “M1 Activity” value was “xx (activity was measured to be between 0.1 μM and 1.0 μM)”; the Emax was in the range of 65 to 85%.
In the case of `CCOC(=O)N1CCC(N2CCC3(CC2)CN(CC(C)=O)c2ccc(F)cc23)CC1` [compound 249], at M4 muscarinic receptor, the “M4 Activity” value is recorded as “x (activity was measured to be greater than 1.0 μM)” and the Emax fell in the range of 65 to 85%. At M1 muscarinic receptor, the “M1 Activity” value is “x (activity was measured to be greater than 1.0 μM)” and the Emax was in the range of 65 to 85%.
Regarding `CCOC(=O)N1CCC(CN2CCC3(CC2)C[C@H](NC(C)=O)c2ccccc23)CC1` [compound 250], at M4 muscarinic receptor, the “M4 Activity” value is given as “x (activity was measured to be greater than 1.0 μM)” and the Emax was in the range of 65 to 85%. Besides, at M1 muscarinic receptor, the “M1 Activity” value is “xx (activity was measured to be between 0.1 μM and 1.0 μM)”; the Emax lay within 65 to 85%.
Turning to `CC(=O)N1CC2(CCN(C3CC[C@@H]4CC[C@@H]3C4)CC2)c2cc(F)ccc21` (some centres unmarked) [compound 251], at M4 muscarinic receptor, the “M4 Activity” value is “x (activity was measured to be greater than 1.0 μM)” and the Emax was 65 to 85%. In addition, on M1 muscarinic receptor, the “M1 Activity” value is “xx (activity was measured to be between 0.1 μM and 1.0 μM)”; the Emax lay within 65 to 85%.
Turning to `CCCOC(=O)N1CCC(N2CCC3(CC2)CN(C(C)=O)c2ccc(C)cc23)CC1` [compound 252], at M4 muscarinic receptor, the “M4 Activity” value was “x (activity was measured to be greater than 1.0 μM)” and the Emax was in the range of 65 to 85%. Further, at M1 muscarinic receptor, the “M1 Activity” value is “x (activity was measured to be greater than 1.0 μM)” and the Emax is less than 65%.
As for `CCOC(=O)N1CCC(N2CCC3(CC2)CN(C(C)=O)c2ccc(-c4ccc(C#N)cc4)cc23)CC1` [compound 253], at M4 muscarinic receptor, the “M4 Activity” value is “x (activity was measured to be greater than 1.0 μM)” and the Emax was 65 to 85%. On M1 muscarinic receptor, the “M1 Activity” value was “xx (activity was measured to be between 0.1 μM and 1.0 μM)”; the Emax was in the range of 65 to 85%.
On to `CCOC(=O)N1CCC(N2CCC3(CC2)CN(C(=O)C2CCC2)c2ccc(F)cc23)CC1` [compound 254], for which, on M4 muscarinic receptor, the “M4 Activity” value was “x (activity was measured to be greater than 1.0 μM)” and the Emax is 65 to 85%. Further, on M1 muscarinic receptor, the “M1 Activity” value was “x (activity was measured to be greater than 1.0 μM)” and the Emax fell in the range of 65 to 85%.
Consider `CCNC(=O)N1CC2(CCN(C3CC4CCC(C3)N4C(=O)OCC)CC2)c2cc(F)ccc21` (centres unmarked) [compound 255], for which, on M4 muscarinic receptor, the “M4 Activity” value was “x (activity was measured to be greater than 1.0 μM)” and the Emax was less than 65%. For the same molecule, on M1 muscarinic receptor, the “M1 Activity” value is “x (activity was measured to be greater than 1.0 μM)” and the Emax is less than 65%.
Consider `CCOC(=O)N1CCC(CN2CCC3(CC2)CN(C(C)=O)c2ccc(Cl)cc23)CC1` [compound 256], for which, at M4 muscarinic receptor, the “M4 Activity” value is “xx (activity was measured to be between 0.1 μM and 1.0 μM)”; the Emax was less than 65%. Moreover, at M1 muscarinic receptor, the “M1 Activity” value was “xx (activity was measured to be between 0.1 μM and 1.0 μM)”; the Emax is less than 65%.
As to `Clc1ccc2c(c1)C1(CCN(C3CCOCC3)CC1)CO2` [compound 257], at M4 muscarinic receptor, the “M4 Activity” value was “x (activity was measured to be greater than 1.0 μM)” and the Emax is less than 65%. Moreover, at M1 muscarinic receptor, the “M1 Activity” value is given as “x (activity was measured to be greater than 1.0 μM)” and the Emax was greater than 85%.
In the case of `O=C(OC1CCCC1)N1C2CCC1CC(N1CCC3(CCc4ccccc43)CC1)C2` (centres unmarked) [compound 258], at M4 muscarinic receptor, the “M4 Activity” value is given as “x (activity was measured to be greater than 1.0 μM)” and the Emax is less than 65%. Further, at M1 muscarinic receptor, the “M1 Activity” value was “x (activity was measured to be greater than 1.0 μM)” and the Emax was 65 to 85%.
